Experimental data reported in patent publication US20170172909A1, “Method Of Counteracting The Impact Of Chronic Stress On Skin” (ELC MANAGEMENT LLC, priority 2015, published 2017).
Several values for one entry are separate records, joined by “and”; a condition that tells them apart may be missing. Equal entries are not always repeated.

How the values were obtained:
[1] = system: p21; test: p21 immunostaining of ex vivo skin explants; format: cell-based, human
Protocol: (§4) After fixation for 24 hours in buffered formalin, the samples were dehydrated and impregnated in paraffin using a Leica TP 1010 dehydration automat. The samples were then embedded using a Leica EG 1160 embedding station. 5-μm-thick sections were made using a Leica RM 2125 Minot-type microtome, and the sections were then mounted on Superfrost® histological glass slides.
(§5) The immunostaining was assessed by microscopical observation.
The evaluation of the p21 immunostained pictures was based on both the number of cells that were stained as well as the staining intensity in each cell.

[2] = system: Human dermal fibroblasts (HDFs); test: Free floating fibroblast-populated collagen lattice (FPCL) contraction; format: cell-based
Protocol: Human dermal fibroblasts (HDFs, passages 6-7) were maintained in Falcon 75 cm^2 tissue culture flasks in DMEM supplemented with 10% FBS. Cells were harvested from monolayer culture, and placed in 6-well culture plates (1×10^5 cells/well). Cells were pretreated with 25 μM hydrocortisone or with a combination of 25 μM hydrocortisone and different concentrations of test materials for 24 hours before being applied to free floating fibroblast populated collagen lattices.
Gels containing collagen HDFs were prepared as described by Tomasek, J. J., et al. (Fibroblast contraction occurs on release of tension in attached collagen lattices: dependency on an organized actin cytoskeleton and serum. Anat. Rec., 1992, March; 232(3):359-68), incorporated herein by reference in its entirety, with modifications as follows. Briefly, collagen solution (Corning, Rat tail, 354236), concentrated DMEM, 0.1N NaOH and FBS, were gently mixed at 4° C., giving a suspension at a final density of 5×10^5 cells and 3 mg/ml collagen. The collagen/cell suspension (2 ml total) was poured on 35 mm-uncoated dish and allowed to polymerize for 45 minutes at 37° C. Then lattices were released and gels were allowed to float in the medium. […]
Fibroblast contractility was assessed by measuring changes in the surface area of collagen I gels mediated by fibroblasts. […] Thereafter, lattice diameter was measured. […]

[3] = system: fibroblasts from abdominal skin; test: GlaSbox contractile forces on collagen lattices, with or without cortisol, abdominal fibroblasts; format: cell-based, human; conditions: cortisol 250 ng/ml
Source text: In this study, the GlaSbox® system was used to analyze the effect of cortisol, with and without test materials, on the contractile forces generated by fibroblasts populating collagen lattices. The GlaSbox® device differs from other collagen lattice systems in that it uses a fixed, non-floating collagen lattice where the diameter of the collagen lattice remains constant but electrodes measure the actual contractile forces exerted by the cells on the collagen lattice.
Fibroblasts were obtained from eyelid and abdominal skin of Chinese female donors. The effect of Biobenefity and Albizia julibrissin on the contractile forces of fibroblasts originating from eyelid, with or without exposure to cortisol (250 ng/ml), were evaluated.
Two fibroblast cell types, one originating from eyelid and the other one from abdominal skin tissue, were purchased from Tebu-Bio (Boechout, Belgium). These cell types were isolated from different donors, each being a person. […] The forces are expressed as arbitrary units.
Each Glasbox® curve was fitted with GraphPad Prism® software to determine the area under the curve (AUC) and the maximum of contraction (Max). […] Data are expressed as mean±standard deviation. The measurement of contractile forces was analyzed by means of a variance analysis with two factors (group versus control and time). […]

[4] = system: fibroblasts from eyelid; test: GlaSbox contractile forces on collagen lattices, with or without cortisol, eyelid fibroblasts; format: cell-based, human; conditions: cortisol 250 ng/ml
Source text: In this study, the GlaSbox® system was used to analyze the effect of cortisol, with and without test materials, on the contractile forces generated by fibroblasts populating collagen lattices. The GlaSbox® device differs from other collagen lattice systems in that it uses a fixed, non-floating collagen lattice where the diameter of the collagen lattice remains constant but electrodes measure the actual contractile forces exerted by the cells on the collagen lattice. Fibroblasts were obtained from eyelid and abdominal skin of Chinese female donors. The effect of Biobenefity and Albizia julibrissin on the contractile forces of fibroblasts originating from eyelid, with or without exposure to cortisol (250 ng/ml), were evaluated. Two fibroblast cell types, one originating from eyelid and the other one from abdominal skin tissue, were purchased from Tebu-Bio (Boechout, Belgium). These cell types were isolated from different donors, each being a person. The fibroblasts were embedded three-dimensionally in hydrated collagen gel lattices. […] The forces are expressed as arbitrary units. […] Data are expressed as mean±standard deviation. The measurement of contractile forces was analyzed by means of a variance analysis with two factors (group versus control and time). […]

[5] = system: skin explants from the abdominal tissue; test: General morphology of ex vivo skin explants, cortisol-induced premature senescence (Masson's trichrome); format: cell-based, human
Protocol: Thirty three skin explants from the abdominal tissue of a donor, of an average diameter of 10 mm (±1 mm) were prepared.
The formula with 0.1% cortisol was applied topically on days 2, 5, 6 and 7.
On day 0, the three explants from the batch BO were collected and cut in two parts. One half was fixed in buffered formalin, and the other half was frozen at −80° C. On day 9, three explants from all other batches were collected and processed in the same way.
Sections were then mounted on Superfrost® plus silanized glass slides. The microscopical observations were made using a Leica DMLB or Orthoplan microscope. Pictures were digitized with a numeric DP72 Olympus camera with CellD storing software.
The observation of the general morphology was realized after staining of paraffinized sections according to Masson's trichrome, Goldner variant.

[6] = system: progerin; test: Progerin immunostaining of ex vivo skin explants; format: cell-based, human
Protocol: as §4, §5
Progerin staining intensity was measured in a similar way as for p21.

[7] = system: elastin; test: Elastin release by HDFs (Elastin Elisa); format: cell-based, human; conditions: 2.5 mg/ml, 72 hours
Protocol: (§1) HDFs, at passage 4, were plated in 96 well plates. After the cells reached confluency they were placed under starvation conditions for 48 hours. Cells then were treated with test materials in cell medium for 72 hours after which the medium was collected for analysis of elastin (Elastin Elisa assay, SOP D.33). Cell viability also was measured using the MTT assay (SOP D.29). Statistical analysis was performed with an ANOVA+Fisher LSD post hoc test. A p value of less than 0.05 was considered significant.
(§2) The results are presented as pg/ml elastin corrected for viability. The percent increase in elastin release is calculated as:
(§3) % increase=[Amount Elastinactive/Amount Elastincontrol]×100−100

[8] = system: tropoelastin; test: Tropoelastin synthesis by HDFs; format: cell-based, human; conditions: 5 pg/ml
Protocol: as §1, §2, §3

[9] = system: fibrillin-1; test: Fibrillin-1 release by HDFs (sandwich ELISA); format: cell-based, human; conditions: positive control, 100 ng/ml, 24 hours
Protocol: Fibrillins, glycoproteins secreted by fibroblasts, are essential for the formation of elastic fibers found in connective tissue. Test compounds Mitostime (extract of Laminaria digitata) and Milk Peptide Complex (MPC or whey protein, available from CLR, Germany) were evaluated for their capacity to stimulate the synthesis of fibrillin-1 in HDFs.
An aliquot of a selected fibroblast cell line (HDFs) was thawed, placed into culture, and allowed to establish good growth before passaging into a 24-well plate (5×10^4 cells/1 ml well). After overnight adhesion to the well, test compounds were added to the medium at three different concentrations and the cells were incubated for 24 hours. A positive control of 100 ng/ml TGFβ1, was included. The negative controls used were 0.1% BSA and 0.1% EtOH. After 24 hours, medium was harvested, centrifuged, and transferred to fibrillin-1 sandwich ELISA plates to determine the amount of fibrillin released.

[10] = system: fibroblasts from an abdominoplasty; test: GlaSbox contractile forces of fibroblasts on collagen lattices (stimulation, Example 3); format: cell-based, human; conditions: 2.5 ng/ml, 24 hours
Source text: In this study, the GlaSbox® system was used to analyze the effect of cosmetic raw materials, TGFβ1, Taisoh Liquid B Jujube Extract (Ziziphus jujuba fruit), available from Ichimaru Pharcos, and Uplevity, available from Lipotec. TGFβ1, used in this study as a positive control, is known to play a role in cellular functions, including cell proliferation, differentiation, wound healing and matrix-related processes. Taisoh Liquid B Jujube Extract has been reported to stimulate wound healing. […]
Fibroblasts were embedded three-dimensionally in hydrated collagen gels composed of 6 volumes of 1.76× (DMEMc, NaHCO3, NaOH, antibiotics), 3 volumes rat tail type I collagen (2 mg/ml) and 1 volume of cellular suspension (8×10^5 cells/ml) using a modified version of the technique developed by Bell et al. (Production of a tissue-like structure by contraction of collagen lattices by human fibroblasts of different proliferative potential in vitro. Proc. Natl. Acad. Sci. USA 76, 1274-1278 (1979). The lattice mixture was poured into the rectangular culture plate of the GlaSbox® and polymerized in less than 30 minutes at 37° C. […] The forces were expressed as arbitrary units (AU) after 24 hours of measurement. […]

[11] = 0.1% cortisol, day 9, versus untreated
[12] = day 9, with 0.1% cortisol, Biwa leaf, Biobenefity, Juvinity 0.5% w/v, IBR Dormin 0.1% w/v

## C[C@]12CCC(=O)C=C1CC[C@@H]1[C@@H]2[C@@H](O)C[C@@]2(C)[C@H]1CC[C@]2(O)C(=O)CO [cortisol]
[1]; [11]
  p21 staining intensity (semi-quantitative grading): from very weak to moderate
[2]; 25 μM, listed as hydrocortisone
  Decrease of lattice contraction versus untreated lattices: 11.8% and 9%
[2]; 50 μM
  Decrease of lattice contraction versus untreated lattices: 18%
[3]
  Contractile forces (AUC and maximum contractile force): significant decrease
[4]
  Contractile forces (AUC and maximum contractile force): significant decrease
[5]; 0.1% cortisol topically during 7 days (day 2 to day 9)
  General morphology of explants: moderate epidermal atrophy
[6]; [11]
  Progerin staining intensity: increased from weak to moderate

## O=C[C@H](O)[C@H](O)[C@H](O)CO [Riboxyl, D-ribose]
[7]
  Increase in elastin synthesis versus untreated cells: 66%

## TGFβ1: Transforming Growth Factor β, secreted protein used as a positive control
[8]
  Increase in tropoelastin synthesis versus untreated cells: 175%
[9]
  Fibrillin release at baseline level: stimulate the fibrillin release
[10]
  Increase of contractile forces (AUC): 25.5%
  Increase of maximum contraction: 26.0%

## CC(C)=CCCC(C)=CCCC(C)=CCCC(C)=CCCC(C)O (stereo not shown) [Juvinity, Geranylgeranyl-2-propanol]
[1]; [12]
  Effect on cortisol-induced increase in p21 staining intensity: partially reduce
[5]; day 9, absence of cortisol, Biwa leaf, Biobenefity, Juvinity 0.5% w/v, IBR Dormin 0.1% w/v in medium
  General morphology of explants: altered morphology, with pycnotic nuclei and cellular spongiosis
[5]; day 9, with topical 0.1% cortisol, Biwa leaf, Biobenefity, Juvinity 0.5% w/v, IBR Dormin 0.1% w/v
  Effect on cortisol-induced morphology (epidermal thickness): did not have any beneficial effect
[6]; [12]
  Effect on cortisol-induced increase in progerin staining intensity: did not show a beneficial effect
